Measurements reported in patent US10517889B2, “Modulators of SMAD7 expression” (Ionis Pharmaceuticals, Inc., priority 2017, dated 2019).
Strand notation (5' to 3'): a small letter for the sugar, then the base; units joined by * are phosphorothioate-linked, units joined directly phosphodiester-linked; [ ] holds rarer units or linkages, { } end groups; capitals alone tell only the bases. k = constrained ethyl (cEt); [5mC] = 5-methylcytosine; d = 2'-deoxy (DNA)

Test system: human SMAD7 mRNA
Experiment: Antisense inhibition of human SMAD7 mRNA expression in Hep3B cells by 3-10-3 cEt gapmers, 10,000 nM, electroporation (Example 2)
Format: cell-based
Settings: Hep3B cells, 10,000 nM antisense oligonucleotide, electroporation, approximately 24 hours, RT-PCR primer probe set RTS5062, relative to untreated control cells
Procedure, shortened: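 qRT-PCR (RTS5062) of SMAD7 mRNA, normalised to RIBOGREEN total RNA, gave percent inhibition relative to untreated controls. Hep3B cells at 20,000 per well received 10,000 nM oligonucleotide by electroporation, with ~24 h treatment.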

Substance	% Inhibition [%]
799951 (antisense kT*k[5mC]*kT*dT*dA*dA*dA*dA*dA*dA*dA*dG*dG*kG*kA*kG) [compound 799951]	0

Same assay, conditions: Hep3B cells, electroporation with 10,000 nM antisense oligonucleotide, approximately 24 hours, RTS5062, percent inhibition of SMAD7 mRNA relative to untreated control cells

Substance	% Inhibition [%]
799311 (antisense k[5mC]*kT*kT*dT*dA*dA*dG*d[5mC]*dA*d[5mC]*dG*d[5mC]*dT*k[5mC]*kT*kA) [compound 799311]	27
799728 (antisense k[5mC]*kG*kG*dA*dG*dA*dG*dG*dA*dA*dG*d[5mC]*d[5mC]*kT*k[5mC]*kT) [compound 799728]	37
799703 (antisense k[5mC]*k[5mC]*kA*dA*dT*dG*dG*d[5mC]*dA*dT*dT*dG*dA*kA*kT*kA) [compound 799703]	45
799649 (antisense kA*kA*kA*dT*dG*dA*dA*dA*dG*d[5mC]*d[5mC]*d[5mC]*d[5mC]*k[5mC]*kA*kG) [compound 799649]	53

Same assay, conditions: Hep3B cells, electroporation with 10,000 nM antisense oligonucleotide, approximately 24 hours, SMAD7 mRNA by RT-PCR (RTS5062), relative to untreated control cells

Substance	% Inhibition [%]
799257 (antisense k[5mC]*k[5mC]*k[5mC]*d[5mC]*dA*dA*dA*dA*d[5mC]*dT*d[5mC]*d[5mC]*dA*kA*kA*kG) [compound 799257]	27
799373 (antisense kA*kA*k[5mC]*d[5mC]*dG*dT*d[5mC]*dT*dT*d[5mC]*d[5mC]*d[5mC]*dA*kT*k[5mC]*kT) [compound 799373]	56
800001 (k[5mC]*kA*kA*dG*dA*dT*dT*d[5mC]*d[5mC]*dA*dT*dT*dT*kA*kG*kG; antisense) [compound 800001]	2
830146 (antisense kT*kG*kG*dT*d[5mC]*dT*dT*d[5mC]*dA*d[5mC]*d[5mC]*dA*dG*kG*kG*kT) [compound 830146]	62
799889 (antisense kA*kA*kA*dA*dG*dG*dA*d[5mC]*dA*dA*dA*dA*d[5mC]*k[5mC]*k[5mC]*k[5mC]) [compound 799889]	45
799942 (antisense kA*kA*k[5mC]*dA*d[5mC]*dT*dG*dG*dT*dT*d[5mC]*d[5mC]*dA*kT*kT*kT) [compound 799942]	0
830062 (k[5mC]*k[5mC]*kT*dA*d[5mC]*d[5mC]*dA*d[5mC]*d[5mC]*d[5mC]*d[5mC]*dT*dG*kT*kG*kA; antisense) [compound 830062]	17
799255 (antisense k[5mC]*kA*kA*dA*dA*d[5mC]*dT*d[5mC]*d[5mC]*dA*dA*dA*dG*kG*kT*kG) [compound 799255]	0
800003 (kA*kG*kA*dA*d[5mC]*dA*d[5mC]*dG*dG*dG*d[5mC]*dA*d[5mC]*kG*k[5mC]*kG; antisense) [compound 800003]	24
830183 (antisense k[5mC]*kG*kG*dT*dT*dG*d[5mC]*d[5mC]*dT*d[5mC]*dA*dT*d[5mC]*k[5mC]*kT*kG) [compound 830183]	47
798846 (k[5mC]*kT*k[5mC]*d[5mC]*dG*d[5mC]*dA*d[5mC]*d[5mC]*dT*dT*d[5mC]*dT*kG*k[5mC]*kA; antisense) [compound 798846]	40

Same assay, conditions: Hep3B cells, electroporation with 10,000 nM antisense oligonucleotide, approximately 24 hours, primer probe set RTS5062, relative to untreated control cells

Substance	% inhibition of SMAD7 mRNA expression [%]	% Inhibition [%]
798983 (antisense k[5mC]*k[5mC]*k[5mC]*d[5mC]*dT*dT*d[5mC]*dA*dT*dA*d[5mC]*dA*d[5mC]*kT*kG*kT) [compound 798983]	0	
799028 (kA*kG*kA*d[5mC]*dA*d[5mC]*d[5mC]*dG*d[5mC]*dT*dT*dG*dG*kG*kA*k[5mC]; antisense) [compound 799028]	37	
799094 (antisense kT*kG*kA*dT*dG*dT*d[5mC]*dA*d[5mC]*d[5mC]*dA*dG*dG*kG*k[5mC]*kA) [compound 799094]		57
799228 (k[5mC]*kA*kT*dA*dG*dA*dA*dA*dA*dA*dA*dA*d[5mC]*kA*k[5mC]*k[5mC]; antisense) [compound 799228]		4
798747 (antisense k[5mC]*kG*kG*d[5mC]*d[5mC]*dT*dG*dG*dA*dG*d[5mC]*dA*dG*k[5mC]*kA*kG) [compound 798747]	14	
799340 (kA*kG*kA*dT*dA*d[5mC]*d[5mC]*d[5mC]*dA*dG*dT*dT*d[5mC]*kG*kG*k[5mC]; antisense) [compound 799340]	0	
798726 (antisense k[5mC]*kA*k[5mC]*d[5mC]*dT*d[5mC]*dG*d[5mC]*dA*d[5mC]*d[5mC]*dG*d[5mC]*k[5mC]*kT*kT) [compound 798726]	7	
799458 (antisense kT*kT*kG*dA*dA*dA*dA*d[5mC]*d[5mC]*d[5mC]*dA*dA*d[5mC]*k[5mC]*k[5mC]*kT) [compound 799458]	3	
799266 (antisense kG*kG*k[5mC]*d[5mC]*dT*dT*d[5mC]*d[5mC]*dA*dT*d[5mC]*d[5mC]*dA*kA*k[5mC]*kT) [compound 799266]	37	

Same assay, conditions: Hep3B cells, electroporation, 10,000 nM antisense oligonucleotide, approximately 24 hours, RTS5062, relative to untreated control cells

Substance	% inhibition of SMAD7 mRNA expression [%]
799503 (antisense kG*kG*k[5mC]*d[5mC]*dA*d[5mC]*d[5mC]*dA*dG*dG*dA*d[5mC]*dA*kA*kT*kG) [compound 799503]	0
799835 (antisense kG*k[5mC]*kA*dG*dA*dT*dG*dT*dA*dT*dA*d[5mC]*dA*kA*kA*kT) [compound 799835]	70
799518 (antisense kA*k[5mC]*kT*dT*dA*dA*dG*dT*dA*dG*dA*dG*d[5mC]*kA*kA*kA) [compound 799518]	38
799575 (k[5mC]*kA*k[5mC]*dA*dT*dT*d[5mC]*dA*dG*dG*dG*dT*dT*kT*kA*kA; antisense) [compound 799575]	38
799560 (kG*kG*k[5mC]*dA*d[5mC]*dA*dG*d[5mC]*dT*dT*d[5mC]*dT*dA*kT*kT*k[5mC]; antisense) [compound 799560]	18
799307 (antisense kT*k[5mC]*kT*dA*dA*dA*d[5mC]*dA*dG*d[5mC]*dA*dT*dG*kA*kA*kA) [compound 799307]	10
799811 (antisense k[5mC]*kT*kG*d[5mC]*d[5mC]*dA*dA*d[5mC]*dG*dG*d[5mC]*dA*d[5mC]*kA*kG*kT) [compound 799811]	0

Same assay, conditions: SMAD7 mRNA, Hep3B cells, 10,000 nM antisense oligonucleotide, electroporation, approximately 24 hours, primer probe set RTS5062, relative to untreated control cells

Substance	% Inhibition [%]
790469 (k[5mC]*kG*kG*dA*d[5mC]*dG*dA*dG*d[5mC]*dG*d[5mC]*dA*dG*kA*kT*k[5mC]; antisense) [compound 790469]	41
772595 (kA*k[5mC]*k[5mC]*dA*d[5mC]*dG*d[5mC]*dA*d[5mC]*d[5mC]*dA*dG*dT*kG*kT*kG; antisense) [compound 772595]	2
801132 (antisense kG*kG*kT*dG*dA*d[5mC]*dT*d[5mC]*dA*dT*d[5mC]*dA*dG*kG*k[5mC]*kA) [compound 801132]	55
829775 (antisense k[5mC]*kG*kA*dG*dT*dA*dG*dG*dA*d[5mC]*dG*dA*dG*kG*kG*k[5mC]) [compound 829775]	59

Same assay, conditions: SMAD7 mRNA, Hep3B cells, electroporation with 10,000 nM antisense oligonucleotide, approximately 24 hours, primer probe set RTS5062, relative to untreated control cells

Substance	% Inhibition [%]
829890 (antisense kA*kA*kG*d[5mC]*d[5mC]*d[5mC]*dG*dT*d[5mC]*d[5mC]*dA*d[5mC]*dG*kG*k[5mC]*kT) [compound 829890]	0
829984 (kA*kG*kG*d[5mC]*dG*dG*dT*dG*dA*dT*dT*dG*d[5mC]*k[5mC]*kT*kT; antisense) [compound 829984]	0
829835 (k[5mC]*kA*kG*dT*dG*dT*dG*dA*d[5mC]*d[5mC]*dG*dA*dT*k[5mC]*k[5mC]*k[5mC]; antisense) [compound 829835]	52
